In patent US9884046B1, “Method of treating lung cancer” (Macau University of Science and Technology, priority 2017, dated 2018):

What was measured:
[1] = test system: H2122 cells; test: MTT cell viability assay, H2122; format: cell-based; conditions: Homo sapiens, NCI-H2122, H2122 (KRAS G12C)
Description: (§1) H2122, H460 and H358 cells were purchased from ATCC and cultivated with Roswell Park Memorial Institute (RPMI) 1640 medium supplemented with 10% fetal bovine serum (Gibco, Big Cabin, Oklahoma, Me., USA), 100 U/mL penicillin and 100 μg/mL streptomycin (Gibco, Big Cabin, Oklahoma, Me., USA). All the cells were cultivated at 37° C. with 5% CO2 incubator. Cells were seeded on a 96-well microplate with 3000, 4000 or 5000 cells/well, and were cultured overnight for cell adhesion. Different concentrations of compound 0375-0604 were added to the microplates, and the plates were incubated for 24, 48 or 72 h. Each dosage was repeated as triplicate. 10 μL MTT (5 mg/mL) solution was added to every well. After incubation for 4 h, 100 μL dimethyl sulfoxide (DMSO) was added to each well. After shaking for 15 min, the absorbance of the plate was measured at 570 nm (absorbance) and 650 nm (reference) by a microplate reader (Tecan, Morrisville, N.C., USA).
(§2) The cytotoxicity of compound 0375-0604 was determined by MTT assay. The effect of compound 0375-0604 on three NSCLC cell lines, H2122, H358 and H460 was examined. H2122, H358 and H460 are harboring KRAS-activating mutations. H2122 and H358 cells have mutant KRAS that includes an amino acid substitution from a glycine to a cysteine at codon or position 12 (i.e. mutant KRAS ^G12C). H460 cells have mutant KRAS that includes an amino acid substitution from a glutamine to a histidine at codon or position 61 (i.e. mutant KRAS Q61H).
(§3) Cells were incubated with compound 0375-0604 at different concentrations (0, 25, 50, 100 μM) for 24, 48, and 72 h. As shown in FIGS. 3A-3C, the cell viability of three NSCLC cell lines was decreased by the treatment of compound 0375-0604 in a dose-dependent and time-dependent manner.

[2] = test system: H358 cells; test: Cell cycle analysis by PI staining and flow cytometry; format: cell-based; conditions: H358 cells, 50, 100 μM, 24 h
Description: H358 cells were plated with 2.0×10^5 cells/well at a 6-well plate and cultured overnight for attachment. After treatment with compound 0375-0604 at 0, 50, 100 μM for 24 h, all cells were harvested by trypsin, and centrifuged at 1000 rpm, at room temperature for 5 min. Cells pellets were re-suspended in 70% ethanol at 4° C. for 30 min. Cells were centrifuged at 1000 rpm for 5 min to remove all the ethanol. Each cell pellet was re-suspended in 300 μL Propidium iodide (PI) staining solution at 37° C. for 30 min in the dark. The cells were then washed twice with phosphate-buffered saline (PBS). Finally, cells were re-suspended in 300 μL PBS and transferred to the flow cytometer (BD FACS Aria III).
H358 cells were treated with compound 0375-0604 at different concentrations (0, 50, 100 μM) for 24 h, and stained with Propidium iodide (PI). The samples were analyzed by flow cytometry.

[3] = test system: phosphorylation of CRAF (p-CRAF); test: Western blot of KRAS downstream signaling; format: cell-based; conditions: H2122, H460 and H358 cells, 24, 48 and 72 h, versus untreated cells
Description: After treatment with compound 0375-0604 for 24 h, 48 h or 72 h, radioimmunoprecipitation assay (RIPA) lysis buffer which contains protease and phosphatase inhibitors, was added to extract the whole cell protein. Bio-Rad DC™ protein assay kit (Bio-Rad, Philadelphia, Pa., USA) was used to quantify the protein. 30 μg protein lysate were loaded and separated by 10% sodium dodecyl sulfate (SDS)-polyacrylamide gel electrophoresis and transferred to a nitrocellulose (NC) membrane. The membranes were incubated with the primary antibody (1:2000) and then with a fluorescence-conjugated secondary antibody (1:10000). Glyceraldehyde 3-phosphate dehydrogenase (GAPDH) was used as the loading control for normalization. The signal of the membranes was scanned with a LI-COR Odyssey Scanner (Belfast, Me., USA).
Untreated cells were used as control.

[4] = test system: H460 cells; test: MTT cell viability assay, H460; format: cell-based; conditions: Homo sapiens, NCI-H460, H460 (KRAS Q61H)
Description: as §1, §2, §3

[5] = molecular target: KRAS (Homo sapiens, UniProt P01116); test: Bio-layer interferometry, His-KRAS on Ni-NTA biosensors; format: binding; conditions: BLI
Description: The interaction between KRAS and compound 0375-0604 was determined by bio-layer interferometry using an Octet Red 96 instrument (FortéBio Inc.). Ni-NTA Biosensors tips (FortéBio, Inc., Menlo Park, Calif.) were prewetted with PBS to establish a baseline before immobilization. His-KRAS was then immobilized onto Ni-NTA Biosensors. The experiments comprised five steps: (1) baseline acquisition, (2) KRAS loading onto the sensor, (3) second baseline acquisition, (4) association of compound 0375-0604 for the measurement of kon, and (5) dissociation of compound 0375-0604 for the measurement of koff. Six concentrations of compound 0375-0604 were used for detection. The association and dissociation plot and kinetic constants were obtained with FortéBio data analysis software. Equilibrium dissociation constants (Kd) were calculated in the ratio of koff to kon.
Bio-layer interferometry assay (BLI), a label-free technology, was used to measure the biomolecular interaction between KRAS and compound 0375-0604. In this study, the His-labeled KRAS protein was immobilized on the Ni-NTA (NTA) Biosensors. […] Experimental data for association and dissociation are represented on the left and right side.

[6] = test system: GTP-bound KRAS; test: RAS-binding domain pull-down (RBD:PD) assay; format: cell-based; conditions: H358 cells, 24 h, 50 and 100 μM
Description: RAS activity was detected using the RAS Activation Assay Kit from Upstate-Millipore. The whole cell lysates were incubated with Glutathione S-transferase-[…]-binding domain (GST-RBD) and glutathione beads for 1 h. Agarose beads were pelleted by centrifugation and washed 3 times with Mg^2+ lysis buffer. Agarose beads were re-suspended in loading buffer. Samples were analyzed by the western blotting as previously described and blots probed using anti-KRAS antibody (sc-30, SANTA).
KRAS mutant cells (H358) were treated with compound 0375-0604 for 24 h. After 24 h treatment, cells were collected and determined by a RAS-binding domain pull-down (RBD:PD) assay and immunoblotting with a KRAS-specific antibody.

[7] = test system: H358 cells; test: MTT cell viability assay, H358; format: cell-based; conditions: Homo sapiens, NCI-H358, H358 (KRAS G12C)
Description: as §1, §2, §3

Sequence of KRAS (P01116 1-188 isoform P01116-2): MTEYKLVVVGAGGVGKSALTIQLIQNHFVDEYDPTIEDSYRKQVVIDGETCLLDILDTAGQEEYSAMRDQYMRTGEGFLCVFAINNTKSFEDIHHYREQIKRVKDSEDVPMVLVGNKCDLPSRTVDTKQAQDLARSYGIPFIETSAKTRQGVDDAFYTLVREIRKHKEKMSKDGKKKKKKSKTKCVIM

- IC50 ([1]; 24 h): > 100 µM
- IC50 ([1]; 48 h): > 100 µM
- IC50 ([1]; 72 h): 39.6 ± 3.09 µM
- IC50 ([4]; 24 h): > 100 µM
- IC50 ([4]; 48 h): 100 ± 13.3 µM
- IC50 ([4]; 72 h): 66 ± 11.8 µM
- koff ([5]; 1.56-50 μM compound): 2.12E-01 S^−1
- kon ([5]; 1.56-50 μM compound): 1.83E+04 M^−1 S^−1
- Kd ([5]; calculated as ratio of koff to kon): 11.6 µM
- level of GTP-bound KRAS [6]: inhibited
- IC50 ([7]; 24 h): > 100 µM
- IC50 ([7]; 48 h): > 100 µM
- IC50 ([7]; 72 h): 63.8 ± 3.89 µM
SMILES: Nc1ccc(Sc2nc3ccccc3s2)c(Cl)c1 [compound 0375-0604]
- percentage of cells in G0/G1 phase [2]: slightly decreased
- percentage of cells in G2/M phase [2]: increased
- level of phosphorylation of CRAF (p-CRAF) [3]: decreased
